Data published in patent US20240246981A1, “[…] DERIVATIVES AS INHIBITORS OF […]-PEPTIDE CYCLOTRANSFERASE AND […]-PEPTIDE CYCLOTRANSFERASE LIKE PROTEIN” (Boehringer Ingelheim International GmbH, priority 2022, published 2024).

Tests used:
[1] = Assay C: permeability in CACO-2 cells; format: in vitro ADME; settings: human, pH 7.2, compounds of the invention, Table 7
Procedure: Compounds are dissolved in appropriate solvent (like DMSO, 1-20 mM stock solutions). […] The transport solution (TL) is applied to the apical or basolateral donor side for measuring A-B or B-A permeability (3 filter replicates), respectively. Samples are collected at the start and end of experiment from the donor and at various time intervals for up to 2 hours also from the receiver side for concentration measurement by HPLC-MS/MS or scintillation counting. Sampled receiver volumes are replaced with fresh receiver solution.

QPCT = QPCT (Homo sapiens (Human), UniProt Q16769); assay: Assay A: biochemical QPCT activity assay (MALDI-TOF MS); settings: compounds of the invention, Table 2; read-out: Inhibition of QPCT: IC50
Procedure: (§1) QPCT or QPCTL dependent conversion of N-terminal glutamine to pyroglutamate of CD47 was monitored via MALDI-TOF MS. Test compounds were dissolved in 100% DMSO and serially diluted into clear 1,536-well microtiter plates. Enzymatic reactions were set up in assay buffer containing 20 mM Tris pH 7.5, 0.1 mM TCEP, 0.01% BSA, and 0.001% Tween20. […] The plates were incubated for 10 min in a humidified incubator at 24° C. Subsequently, 2.5 μL of CD47 peptide substrate surrogate (^19[…]^33) was added to each well (final concentration: 10 μM for QPCTL/20 μM for QPCT). The plates were mixed for 30 sec at 1,000 rpm and subsequently incubated for 40 min in a humidified incubator at 24° C. […] The plates were sealed with an adhesive foil, mixed for 30 s at 1,000 rpm and stored at room temperature until preparation of the MALDI target plates. […] QPCT or QPCTL activity was monitored by calculating the ratio between product and internal standard signals followed by normalization to high (100% activity) and low (0% activity) controls. Determination of compound potencies was obtained by fitting the dose-response data to a four-parameter logistical equation.

[2] = test system: SIRPα signalling induced by Raji cells; assay: Assay B: SIRPα signalling assay using Raji cells; format: cell-based, human; settings: Homo sapiens, compounds of the invention, Table 4, read-out: Inhibition of SIRα signalling induced by Raji cells: IC50
Procedure: Bioassay reagent 1 of the PathHunter Bioassay detection kit (DiscoverX 93-0001) was added to each well of the plate using a multichannel pipette followed by a 15 min incubation at room temperature. Afterwards bioassay reagent 2 was added followed by 60 min incubation at room temperature (incubation in the dark).
(§2) The analysis of the data was performed using the luminescence signal generated by beta-galactosidase in the PathHunter reporter cell line. The luminescence measurement was done using a Pherastar Multi-Mode Reader.

[3] = test system: SIRPα signalling induced by A549 cells; assay: Assay B: SIRPα signalling assay using A549 cells; format: cell-based, human; settings: Homo sapiens, compounds of the invention, Table 4, read-out: Inhibition of SIRα signalling induced by A549 cells: IC50
Procedure: Two cell types are independently used: the Raji cell line (lymphoblastlike human cell line derived from B lymphocytes from a Burkitt's lymphoma patient in 1963) and A549 cells (adenocarcinomic human alveolar basal epithelial cells).
Test compounds were dissolved in 100% DMSO and serially diluted into a white 384-well microtiter cell culture plate (PerkinElmer #60076780 in case of Raji assay; PDL-coated plates Greiner #781945 in case of A549 assay). 5000 Raji cells (ATCC #CC86) or 5000 A549 cells (ATCC #CCL-185) in Assay Complete Cell Plating reagent 30 (DiscoverX 93-0563R30B) were added per well. The assay plate was incubated for 48 h at 37° C., 95% humidity and 5% CO2. 15000 reporter cells (Jurkat PathHunter SIRPα V1, DiscoverX #93-1135C19) were added to each well, and the plate was incubated for 5 h at 37° C., 95% humidity and 5% CO2. Bioassay reagent 1 of the PathHunter Bioassay detection kit (DiscoverX 93-0001) was added to each well of the plate using a multichannel pipette followed by a 15 min incubation at room temperature. Afterwards bioassay reagent 2 was added followed by 60 min incubation at room temperature (incubation in the dark).
as §2, with “Reader. Dose-response curves & IC50 data were calculated with 4-parameter sigmoidal dose response formula.” for “Reader.”

QPCTL = QPCTL (Homo sapiens (Human), UniProt Q9NXS2); assay: Assay A: biochemical QPCTL activity assay (MALDI-TOF MS); settings: compounds of the invention, Table 2; read-out: Inhibition of QPCTL: IC50
Procedure: as §1

Chain of QPCT (Q16769 29-361): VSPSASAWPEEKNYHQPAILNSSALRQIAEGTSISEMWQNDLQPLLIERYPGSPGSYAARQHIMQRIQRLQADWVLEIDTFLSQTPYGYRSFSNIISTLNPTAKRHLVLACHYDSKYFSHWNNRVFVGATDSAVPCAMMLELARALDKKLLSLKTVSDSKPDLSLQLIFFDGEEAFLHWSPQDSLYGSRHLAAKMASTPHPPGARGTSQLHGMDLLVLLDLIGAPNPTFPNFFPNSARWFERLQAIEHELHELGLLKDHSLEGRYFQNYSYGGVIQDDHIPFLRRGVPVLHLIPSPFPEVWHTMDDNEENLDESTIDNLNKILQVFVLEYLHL
Chain of QPCTL (Q9NXS2 whole entry): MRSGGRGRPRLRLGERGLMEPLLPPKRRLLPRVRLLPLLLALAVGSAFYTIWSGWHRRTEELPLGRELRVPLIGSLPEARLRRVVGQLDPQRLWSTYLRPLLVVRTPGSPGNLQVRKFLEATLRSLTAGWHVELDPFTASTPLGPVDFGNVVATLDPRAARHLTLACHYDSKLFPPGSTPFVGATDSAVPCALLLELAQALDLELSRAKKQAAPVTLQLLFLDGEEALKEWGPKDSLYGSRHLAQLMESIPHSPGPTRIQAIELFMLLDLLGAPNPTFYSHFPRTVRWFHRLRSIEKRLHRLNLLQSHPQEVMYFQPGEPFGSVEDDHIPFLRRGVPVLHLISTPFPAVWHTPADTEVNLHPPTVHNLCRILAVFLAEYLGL

| Papp A→B ([1]; Caco-2, apical to basolateral) [×10⁻⁶ cm/s] | efflux ratio ([1]; Caco-2) | IC50 (QPCT) [nM] | IC50 [2] [nM] | IC50 [3] [nM] | IC50 (QPCTL) [nM] | Papp A→B at 2 h ([1]; Caco-2, apical to basolateral) [×10⁻⁶ cm/s] | efflux ratio at 2 h ([1]; Caco-2) | SMILES |
| --- | --- | --- | --- | --- | --- | --- | --- | --- |
| 55 | 1.3 | 3 | 102 | 47 | 1 | – | – | Cc1cc(F)ncc1-c1cccc(C#N)c1N1CCC(F)(c2nncn2C)CC1 [compound 83] |
| 0.8 | 31.6 | 26 | 140 | 173 | 4 | – | – | Cn1nc2cc(-c3cccc(C#N)c3N3CCC(c4nncn4C)CC3)cnc2n1 [compound 45] |
| 18 | 1.6 | 1 | 13 | 23 | 1 | – | – | Cn1cnnc1C1(F)CCN(c2c(C#N)cccc2-c2cnc3nn(C(C)(C)C)c(Cl)c3c2)CC1 [compound 86] |
| 10.3 | 8.7 | 105 | 736 | 303 | 28 | – | – | Cn1cnnc1C1CCN(c2c(C#N)cccc2-c2cncc(C3CC3)c2)CC1 [compound 15] |
| 3.9 | 9.5 | 31 | 257 | 348 | 6 | – | – | Cc1ccncc1-c1cccc(C#N)c1N1CCC(c2nncn2C)CC1 [compound 8] |
| 4.9 | 19 | 1 | 21 | 11 | 1 | – | – | Cn1cnnc1C1(F)CCN(c2c(C#N)cccc2-c2cnc3nn(C(C)(C)C)cc3c2)CC1 [compound 62] |
| 13.6 | 5 | 357 | 2270 | 294 | 56 | – | – | Cn1cnnc1C1CCN(c2c(C#N)cccc2-c2ccc(Cl)nc2)CC1 [compound 18] |
| 36 | 2 | 24 | 105 | 72 | 4 | – | – | Cn1cnnc1C1CCN(c2c(C#N)cccc2-c2cnc(F)c(Cl)c2)CC1 [compound 42] |
| 10 | 5.1 | 29 | 133 | 18 | 5 | – | – | Cn1cnnc1C1CCN(c2c(C#N)cccc2-c2cncc(C3CCCCO3)c2)CC1 (centres unmarked) [compound 39] |
| 13 | 6 | 8 | 77 | 53 | 2 | – | – | Cn1cnnc1C1CCN(c2c(C#N)cccc2-c2cnc(F)c(OC3CC3)c2)CC1 [compound 47] |
| 3.3 | 14.5 | 3 | 13 | 9 | 1 | – | – | Cn1cnnc1C1(F)CCN(c2c(C#N)cccc2-c2cnc3nnn(Cc4ccccc4)c3c2)CC1 [compound 63] |
| 5.3 | 7.4 | 24 | 229 | 58 | 6 | – | – | Cn1cnnc1C1CCN(c2c(C#N)cccc2-c2cccnc2)CC1 [compound 67] |
| 4.5 | 12.2 | 86 | 625 | 332 | 22 | – | – | COc1cncc(-c2cccc(C#N)c2N2CCC(c3nncn3C)CC2)c1 [compound 16] |
| < 0.3 | > 32 | 3 | 135 | 124 | 1 | – | – | Cn1ccnc1-c1cncc(-c2cccc(C#N)c2N2CCC(c3nncn3C)CC2)c1 [compound 30] |
| 29 | 1.2 | 5 | 61 | 19 | 2 | – | – | Cn1cnnc1C1(F)CCN(c2c(C#N)cccc2-c2cnc3nn(Cc4ccccc4)nc3c2)CC1 [compound 64] |
| 22 | 3 | 28 | 147 | 53 | 5 | – | – | Cn1cnnc1C1CCN(c2c(C#N)cccc2-c2cnc(F)c(F)c2)CC1 [compound 20] |
| 0.5 | 75.5 | 1 | 21 | 33 | 1 | – | – | Cn1cnnc1C1CCN(c2c(C#N)cccc2-c2cnc3nn(C(C)(C)C)cc3c2)CC1 [compound 50] |
| 2.2 | 22.3 | 28 | 342 | 271 | 3 | – | – | Cn1cnnc1C1CCN(c2c(C#N)cccc2-c2cnc3nsnc3c2)CC1 [compound 43] |
| – | – | 24 | 427 | 382 | 5 | 0.4 | 48.6 | Cn1cnnc1C1CCN(c2c(C#N)cccc2-c2cnc3n[nH]cc3c2)CC1 [compound 26] |
| 3.9 | 14.4 | 1 | 28 | 20 | 1 | – | – | Cn1cnnc1C1(F)CCN(c2c(C#N)cccc2-c2cnc3nc(C(C)(C)C)nn3c2)CC1 [compound 72] |
| < 0.1 | > 27 | 6 | 501 | 210 | 1 | – | – | Cn1cnnc1C1CCN(c2c(C#N)cccc2-c2cnc3nc[nH]c3c2)CC1 [compound 33] |
| 35 | 1.3 | 3 | 81 | 22 | 1 | – | – | COc1cc(-c2cccc(C#N)c2N2CCC(F)(c3nncn3C)CC2)cnc1F [compound 53] |
| 7.3 | 7.4 | 77 | 1170 | 199 | 15 | – | – | Cn1cnnc1C1CCN(c2c(C#N)cccc2-c2cncc(F)c2)CC1 [compound 17] |
| 2.7 | 24.4 | 1 | 49 | 27 | 2 | – | – | Cn1cnnc1C1(F)CCN(c2c(C#N)cccc2-c2cnc3nc(C(C)(C)C)cn3c2)CC1 [compound 71] |
| 25 | 2.2 | 75 | 692 | 348 | 18 | – | – | CC#Cc1cncc(-c2cccc(C#N)c2N2CCC(c3nncn3C)CC2)c1 [compound 10] |
| 1.7 | 14.1 | 1 | 18 | 26 | 1 | – | – | Cn1cnnc1C1(F)CCN(c2c(C#N)cccc2-c2cnc3nc(C(F)(F)F)cn3c2)CC1 [compound 74] |
| 1.5 | 19.3 | 12 | 170 | 67 | 2 | – | – | Cn1cnnc1C1CCN(c2c(C#N)cccc2-c2cnc3nonc3c2)CC1 [compound 7] |
| 2.6 | 22.3 | 5 | 40 | 46 | 1 | – | – | Cn1cnnc1C1CCN(c2c(C#N)cccc2-c2cncc3cnn(Cc4ccccc4)c23)CC1 [compound 76] |
| – | 1.8 | 4 | 70 | 80 | 3 | – | – | Cn1cnnc1C1(F)CCN(c2c(C#N)cccc2-c2cnc(F)cc2Cl)CC1 [compound 85] |
